According to patent US20250092345A1, “INTER ORGAN PLATFORM FOR MICROPHYSIOLOGICAL SYSTEM ON A CHIP” (THE TRUSTEES OF COLUMBIA UNIVERSITY IN THE CITY OF NEW YORK, priority 2020, published 2025):

Tested on: non-metastatic TE-ES (RD-ES)
Test: Non-metastatic engineered ES bone tumor (TE-ES) in isolated culture, linsitinib
Type: cell-based, human
Excerpt: The effects of linsitinib were studied in an experiment performed according to the 3-week treatment cycle used in the clinical trial (3 days of drug administration followed by 4 days without the drug, in 3 cycles), with luminescence signal serving as an indicator of cancer cell viability within the TE-ES.
Determining the effects of linsitinib on ES cells and osteoblasts within the engineered ES bone tumors across a 3-week clinical drug treatment regimen is shown in FIGS. 33A-33B. […] Supernatants were collected from each individual sample across the duration of the drug treatments and were analyzed for osteoblast function (OCN, OPN) and for cytotoxicity (LDH) (mean±s.e.m., n=3).
Two weeks following the initiation of osteogenic differentiation, aggregates of ES tumor cells were prepared as described previously, using 0.3×10^6 cells per aggregate. After 1 week of culture, corresponding to the end of bone tissue culture (3 weeks), the primary ES cell aggregates were placed into the engineered bone constructs (3 aggregates per construct, placed apart of each other). Tumor models were established for two different types of primary ES cells: non-metastatic (RD-ES) and metastatic (SK-N-MC). Tissue engineered RD-ES and SK-N-MC tumors were cultured in the RPMI and EMEM media, respectively, supplemented with 10% FBS and 1% penicillin/streptomycin. Bone constructs cultured without tumor cell aggregates (TE-bone) in RPMI and EMEM media were used as controls.
Specifically, linsitinib was dissolved at a 10 mM concentration in DMSO (Corning) and mixed in with the respective cell medium at a […] concentration unless otherwise noted. Vehicle treatments involved just the addition of DMSO at identical volumes as a control. Tissues were randomly assigned to experimental groups. Medium was changed every day.
To assess apoptosis, paraffin embedded tissue sections were first deparaffinized with CitriSolv, rehydrated with graded series of ethanol washes, and then stained with a Click-iT® TUNEL Alexa Fluor® imaging assay (Thermo Fisher Scientific). Following nuclear counterstaining with DAPI (Life Technologies), the TUNEL labelled slides were imaged with an IX81 inverted fluorescent microscope (Olympus) and a Pike F032B camera (ALLIED Vision), using NIS-Elements AR software, and processed using ImageJ (NIH). Four representative images per condition were then analyzed using the previously developed automatic TUNEL cell counter plugin for ImageJ to quantify DAPI^+ cells and TUNEL^+ cells.
Cell viability was analyzed using a previously established protocol. Cancer cell viability was measured for GFP-Luciferase labelled cancer cells using ONE-Glo luciferase substrate that was prepared according to manufacturer's protocol (Promega). Samples were collected following 3, 7, and 21 days cycles of linsitinib treatment. Where noted, longitudinal cell viability was also assessed using luminescence, though at the cost of signal strength. Briefly, in vivo grade VivoGlo™ Luciferin (Promega) was made at a 200× stock concentration (30 mg/ml) in water, added to sample culture media at a 1:200 dilution, and scanned using a spectrophotometer (Biotek). Some of the IC50 values were determined using cell viability data generated using an MTT assay (RealTime-Glo™ MT Cell Viability Assay, Promega) that were analyzed according to manufacturer's protocol.
Osteocalcin (OCN), osteopontin (OPN), and lactic acid dehydrogenase (LDH) secreted levels were all measured using a similar approach.

Compound: C[C@]1(O)C[C@@H](c2nc(-c3ccc4ccc(-c5ccccc5)nc4c3)c3c(N)nccn32)C1 [linsitinib]
- response of cell viability (luminescence) to concentration (0, 1.2, 12 and 120 μM, 72 hours): dose-dependent response
- apoptosis (TUNEL assay) (12 μM): increases in apoptosis
- cell viability (luminescence) (12 μM): significant reduction
- OCN secretion (12 μM regimen, 1:1 mixed media): increased only slightly
- cancer cell population level maintained (luminescence) (12 μM regimen, 1:1 mixed media): ~30 % of their starting population
- cytotoxicity (LDH secretion) (12 μM, 3-week regimen): spiked in both models immediately following drug administration, but significantly more so in the responsive, non-metastatic ES model
- osteocalcin secretion (12 μM, 3-week regimen): decreased
- cancer cell population (luminescence) across the clinical regimen (12 μM, 21-day treatment regimen): initial decrease in cancer cell population in the non-metastatic model and this population appeared unable to continue expanding
- drug response (luminescence) (12 μM, after 3 days): significant drug response
- osteopontin secretion (12 μM, throughout the 21 days): significantly increased
- drug response of ES resistant-cell derived tumors (luminescence) (second 21-day 12 μM regimen on tumors from sorted resistant cells): significant initial drug response
